Read-outs that look alike come from different tables or passages of the source.

Broadly, the IC50 is the concentration that gives 50% inhibition.

Test [1] deals with MS751 cells. Kind of test: MTT cell proliferation assay, MS751. To be noted: Homo sapiens, MS751, MS751 cells, read-out: MTT Assay IC50, MS751. It is filed as cell-based, human. The gist of the method: (§1)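 Read-out: MTT reduction to formazan, solubilised and measured at 490 nm after ~4 h with MTT; inhibition (%) = (1-(ODo/OD))×100 relative to negative control. Seeding was 5,000-10,000 cells/well with overnight attachment. Eight test concentrations spanned 1 nM-30 μM; mostly duplicate, mean ± SE.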
A general note: Formazan colour is commonly taken as a measure of viable cells.

Test [2] relates to 3T3 cells. Kind of test: MTT cell proliferation assay, 3T3. It is filed as cell-based, mouse. To be noted: Mus musculus, NIH3T3, 3T3 cells, read-out: MTT Assay IC50, 3T3. The procedure, abridged:
as §1

Test [3] deals with Z138 cells. Kind of test: MTT cell proliferation assay, Z138. The format is cell-based. Particulars: Homo sapiens, Z-138, Z138 cells, read-out: MTT Assay IC50, Z138. The procedure, abridged: as §1
[4] abbreviates: eight concentrations 1 nM to 30 μM, incubation approximately 64-72 hours.
The mark [5] stands for this setting: approximately 64-72 hours incubation.

Turning to `CC(=O)c1ccc(-c2cc(Cl)c3c(c2)CC(CNC(=O)C#Cc2cccnc2)O3)s1` (stereo not drawn) [Compound 251, N-((5-(5-acetylthiophen-2-yl)-7-chloro-2,3-dihydrobenzofuran-2-yl)methyl)-3-(pyridin-3-yl)propiolamide], the 50% inhibitory concentration (IC50) lay within 0.1 to 5 µM in test [1] (setting [4]), 5 to 30 µM in test [2] (setting [4]) and 0.1 to 5 µM in test [3] (setting [4]).
As to `CC1(C)CN(C(=O)c2ccc(-c3cc(Cl)c4c(c3)CC(/C=C/C(=O)NCc3ccc(N)nc3)O4)cc2)C1` (stereo not drawn) [Compound 362, (E)-N-((6-aminopyridin-3-yl)methyl)-3-(7-chloro-5-(4-(3,3-dimethylazetidine-1-carbonyl)phenyl)-2,3-dihydrobenzofuran-2-yl)acrylamide], the IC50 in test [1] (setting [5]) is below 0.1 µM; in test [2] (setting [5]), below 0.1 µM; in test [3] (setting [5]), above 30 µM.
Regarding `C/C=C/C(=O)NCC1Cc2cc(-c3ccc(C(C)=O)s3)cc(Cl)c2O1` (stereo not drawn) [Compound 181, (E)-N-((5-(5-acetylthiophen-2-yl)-7-chloro-2,3-dihydrobenzofuran-2-yl)methyl)but-2-enamide], the IC50 in test [1] (setting [4]), in test [2] (setting [4]) and in test [3] (setting [4]) was above 30 µM in each case.
With `COc1ccc(F)cc1-c1cc(Cl)c2c(c1)CC(CNC(=O)/C=C/c1cccnc1)O2` (stereo not drawn) [Compound 61, (E)-N-((7-chloro-5-(5-fluoro-2-methoxyphenyl)-2,3-dihydrobenzofuran-2-yl)methyl)-3-(pyridin-3-yl)acrylamide], the 50% inhibitory concentration (IC50) in test [1] (setting [4]), in test [2] (setting [4]) and in test [3] (setting [4]) was 0.1 to 5 µM each time.
Take `O=C(/C=C/c1cccnc1)NCC1Cc2cc(-c3cccc(F)c3F)cc(Cl)c2O1` (stereo not drawn) [Compound 73, (E)-N-((7-chloro-5-(2,3-difluorophenyl)-2,3-dihydrobenzofuran-2-yl)methyl)-3-(pyridin-3-yl)acrylamide]: the IC50 fell in the range of 0.1 to 5 µM in test [1] (setting [4]), 5 to 30 µM in test [2] (setting [4]) and 0.1 to 5 µM in test [3] (setting [4]).
Consider `CC(=O)c1ccc(-c2cc(Cl)c3c(c2)CC(CNC(=O)/C=C/c2ccc(N)nc2)O3)o1` (stereo not drawn) [Compound 319, (E)-N-((5-(5-acetylfuran-2-yl)-7-chloro-2,3-dihydrobenzofuran-2-yl)methyl)-3-(6-aminopyridine-3-yl)acrylamide], for which the IC50 in test [1] (setting [5]) is 0.1 to 5 µM; in test [2] (setting [5]), 5 to 30 µM; in test [3] (setting [5]) it was below 0.1 µM.
In the same order, the values of `Nc1ccc(/C=C/C(=O)NCC2Cc3cc(-c4ccc(CC(=O)N5CCOCC5)cc4)cc(Cl)c3O2)cn1` (stereo not drawn) [Compound 921, (E)-3-(6-aminopyridin-3-yl)-N-((7-chloro-5-(4-(2-morpholino-2-oxoethyl)phenyl)-2,3-dihydrobenzofuran-2-yl)methyl)acrylamide] are below 0.1 µM, 0.1 to 5 µM and below 0.1 µM.
With `CN(C)c1ccc(-c2cc(Cl)c3c(c2)CC(CNC(=O)/C=C/c2cccnc2)O3)cc1` (stereo not drawn) [Compound 64, (E)-N-((7-chloro-5-(4-(dimethylamino)phenyl)-2,3-dihydrobenzofuran-2-yl)methyl)-3-(pyridin-3-yl)acrylamide], the figures for the concentration for half-maximal inhibition (IC50) in test [1] (setting [4]), in test [2] (setting [4]) and in test [3] (setting [4]) were 0.1 to 5 µM, 0.1 to 5 µM and below 0.1 µM, respectively.
Consider `CC(=O)c1ccc(-c2cc(Cl)c3c(c2)CC(CNC(=O)/C=C/c2ccc(N)nc2)O3)s1` (single isomer, unassigned) [Compound 308, (E)-N-((5-(5-acetylthiophen-2-yl)-7-chloro-2,3-dihydrobenzofuran-2-yl)methyl)-3-(6-aminopyridin-3-yl)acrylamide], for which the IC50 in test [1] (setting [5]) was 0.1 to 5 µM; in test [2] (setting [5]) it was 5 to 30 µM; in test [3] (setting [5]), 0.1 to 5 µM.

Source of the values: US9938258B2 (Karyopharm Therapeutics Inc., priority 2012, dated 2018).
